Test results reported in patent US4117151A, “Therapeutic sulfonamides” (priority 1976, dated 1978).
“Also recorded” adds a separate entry of the source. Counter-ions that a name gives are not always drawn.

Columns and labels:
myocardium = conditions: background; cited from earlier work
[1] = test system: oxygen consumption of the myocardium; test: oxygen consumption of the myocardium (rate-pressure product); type: in vivo; conditions: anaesthetized dog, 10 mg/kg intravenous, 100 before administration
Description: This comparative trial aimed at determining the respective capabilities of the two substances to reduce the oxygen consumption of the myocardium. This property was measured by the indirect method known as the "rate-pressure product" which is a widely used and accurate haemodynamic index of myocardial oxygen consumption.
This method requires two cardiovascular parameters to be measured simultaneously, namely the mean aortic systolic blood-pressure and the heart-rate.
The "rate-pressure product" is obtained by multiplying the number of heart beats per minute by the mean aortic systolic blood-pressure. This provides an index of the total amount of oxygen used by the myocardium over a period of one minute. As it thus represents an accurate indication of the oxygen consumption of the myocardium, any lowering of the "rate-pressure product" indicates a corresponding drop in the oxygen consumption of the myocardium.
These tests were carried out on dogs which had been previously anaesthetized with sodium pentobarbital (30 mg/kg by intravenous route).
In both cases, the injection of 10 mg/kg took 2 minutes to administer.

patient = conditions: clinical use; background; cited from earlier work
acute toxicity in rats = type: in vivo; conditions: rat, in vivo, single administration, 12 days observation
Description: (§1) Finally, acute toxicity tests were carried out on rats and mice with Compound No. 7 and on rats with Compounds Nos. 13 and 14, the animals being kept under observation for 12 days following one single administration.

rats = test: acute toxicity in rats; type: in vivo; conditions: single administration, 12 days observation
Description: as §1

stroke volume = stroke volume (cardiac output divided by heart-beats per minute); type: in vivo; conditions: dog, 10 mg/kg intravenous; for Stroke Volume: initial value 100%
Description: The same experimental conditions as above were observed and the following parameters were measured:
Thus, in order to determine the effect of any particular substance on stroke volume, it is sufficient to divide cardiac output by the number of heart-beats per minute.

mice = test: acute toxicity in mice; type: in vivo; conditions: single administration, 12 days observation
Description: as §1

acute toxicity in mice = type: in vivo; conditions: mouse, in vivo, single administration, 12 days observation
Description: as §1

cardiac frequency = test: cardiac frequency, 60 minutes experiment; type: in vivo; conditions: dog, 10 mg/kg intravenous, during 60 minutes
Description: (§2) The same experimental conditions as above were observed and the following parameters were measured: […]

cardiac output = test: cardiac output; type: in vivo; conditions: dog, 10 mg/kg intravenous
Description: as §2

[2] = test system: blood-flow to the myocardium; test: arterial coronary blood-flow (blood-flow to the myocardium); type: in vivo, dog; conditions: 10 mg/kg intravenous
Description: (1) The capability of Compound No. 7 of increasing the blood-flow to the myocardium and thus stepping up the supply of oxygen to this muscle was determined in accordance with the technique described by R. CHARLIER and J. BAUTHIER in Arzneimittel Forschung "Drug Research" 23, 1305-1311 (1973).
Seven experiments were carried out on seven dogs, using a intravenous injection of 10 mg/kg of Compound No. 7. […] The increase in blood-flow was regular and the return to the control values took place progressively within twenty minutes.

CC(C)NCC(O)COc1cccc2ccccc12 (racemic) [prapranolol]
anti-adrenergic effect (myocardium): exert an anti-adrenergic effect | cardiac frequency (myocardium): considerably reduce cardiac frequency | cardiac functioning (myocardium): depress cardiac functioning | oxygen requirements of the myocardium (myocardium): diminish the oxygen requirements of the myocardium | supply of oxygen to the myocardium (myocardium): lower the supply of oxygen to the myocardium

CCCCc1oc2ccccc2c1C(=O)c1cc(I)c(OCCN(CC)CC)c(I)c1 [Amiodarone, reference compound]
Oxygen Consumption (rate-pressure product) ([1]; 2.5 minutes after): 80.9 | Oxygen Consumption (rate-pressure product) ([1]; 5 minutes after): 79.1 | Oxygen Consumption (rate-pressure product) ([1]; 10 minutes after): 81.7 | Oxygen Consumption (rate-pressure product) ([1]; 15 minutes after): 79.7 | Oxygen Consumption (rate-pressure product) ([1]; 20 minutes after): 79.6 | Oxygen Consumption (rate-pressure product) ([1]; 25 minutes after): 80.4 | Oxygen Consumption (rate-pressure product) ([1]; 30 minutes after): 80.2 | Oxygen Consumption (rate-pressure product) ([1]; 35 minutes after): 79.6 | Oxygen Consumption (rate-pressure product) ([1]; 40 minutes after): 79.6 | Oxygen Consumption (rate-pressure product) ([1]; 45 minutes after): 79.6 | Oxygen Consumption (rate-pressure product) ([1]; 50 minutes after): 80.9 | Oxygen Consumption (rate-pressure product) ([1]; 55 minutes after): 80.0 | Oxygen Consumption (rate-pressure product) ([1]; 60 minutes after): 79.1 | side-effects (patient): microdeposit in the cornea; also recorded: in a few rare cases, the development of a cutaneous sensitivity to light which can lead to a slate-coloured pigmentation of the skin; also recorded: dysfunction of the thyroid gland | four qualities of an ideal anti-anginal agent (myocardium): possesses the four qualities

CCCCc1oc2ccccc2c1C(=O)c1ccc(N(CCN(C)C)S(=O)(=O)c2ccc(C)cc2)cc1 [Compound 7, 2-n-butyl-3-[N-(2-dimethylaminoethyl)-N-(4-methyl-benzenesulfonyl)-4-amino-benzoyl]-benzofuran]
LD50 at 288 h (acute toxicity in rats; ip, intraperitoneal): 600 mg/kg | LD50 at 288 h (acute toxicity in rats; po, intragastric): 1600 mg/kg | LD0 (rats; intragastric): 800 mg/kg | LD95 (rats; intragastric): 2400 mg/kg | LD0 (rats; intraperitoneal): 160 mg/kg | LD95 (rats; intraperitoneal): 1400 mg/kg | increase in stroke volume (stroke volume; during the first 5 minutes): above 100% | Stroke Volume (stroke volume; 2.5 min): 213% | Stroke Volume (stroke volume; 5 min): 200% | Stroke Volume (stroke volume; 10 min): 172% | Stroke Volume (stroke volume; 15 min): 152% | Stroke Volume (stroke volume; 20 min): 143% | Stroke Volume (stroke volume; 25 min): 136% | Stroke Volume (stroke volume; 30 min): 137% | Stroke Volume (stroke volume; 35 min): 138% | Stroke Volume (stroke volume; 40 min): 127% | Stroke Volume (stroke volume; 45 min): 127% | Stroke Volume (stroke volume; 50 min): 130% | Stroke Volume (stroke volume; 55 min): 120% | Stroke Volume (stroke volume; 60 min): 117% | performance of the cardiac muscle (stroke volume; conclusion in words): does not depress the performance of the cardiac muscle, and even stimulates this extremely important factor of cardiac functioning | Oxygen Consumption (rate-pressure product) ([1]; 2.5 minutes after): 54.4 | Oxygen Consumption (rate-pressure product) ([1]; 5 minutes after): 57.8 | Oxygen Consumption (rate-pressure product) ([1]; 10 minutes after): 63.5 | Oxygen Consumption (rate-pressure product) ([1]; 15 minutes after): 64.8 | Oxygen Consumption (rate-pressure product) ([1]; 20 minutes after): 64.8 | Oxygen Consumption (rate-pressure product) ([1]; 25 minutes after): 65.2 | Oxygen Consumption (rate-pressure product) ([1]; 30 minutes after): 65.6 | Oxygen Consumption (rate-pressure product) ([1]; 35 minutes after): 66.0 | Oxygen Consumption (rate-pressure product) ([1]; 40 minutes after): 66.8 | Oxygen Consumption (rate-pressure product) ([1]; 45 minutes after): 67.2 | Oxygen Consumption (rate-pressure product) ([1]; 50 minutes after): 67.6 | Oxygen Consumption (rate-pressure product) ([1]; 55 minutes after): 68.9 | Oxygen Consumption (rate-pressure product) ([1]; 60 minutes after): 68.9 | LD0 (mice; intragastric): 550 mg/kg | LD95 (mice; intragastric): 5000 mg/kg | LD0 (mice; intraperitoneal): 50 mg/kg | LD95 (mice; intraperitoneal): 900 mg/kg | LD50 at 288 h (acute toxicity in mice; ip, intraperitoneal): 275 mg/kg | LD50 at 288 h (acute toxicity in mice; po, intragastric): 2100 mg/kg | cardiac frequency (cardiac frequency): dropped to a highly significant degree during 60 minutes | return of cardiac output to the control value (cardiac output): ≤ 20 min | increase in cardiac output (cardiac output; after 2.5 minutes): 70% | increase in cardiac output (cardiac output; after 5 minutes): 50% | return of blood-flow to the control values ([2]; dog, hydrochloride): twenty | supply of oxygen to the myocardium ([2]; dog, conclusion in words): increases to a very marked degree the supply of oxygen to the myocardium | maximal increase in blood-flow to the myocardium ([2]; seven dogs, after 3 minutes, hydrochloride): about 94%

CCCCc1oc2ccccc2c1C(=O)c1ccc(N(CCCN(CCC)CCC)S(=O)(=O)c2ccc([N+](=O)[O-])cc2)cc1 [Compound 13, 2-n-butyl-3-[N-(3-di-n-propylaminopropyl)-N-(4-nitro-benzenesulfonyl)-4-amino-benzoyl]-benzofuran]
LD50 at 288 h (acute toxicity in rats; ip, intraperitoneal): 1000 mg/kg | LD0 (rats; intraperitoneal): 180 mg/kg | LD95 (rats; intraperitoneal): 3000 mg/kg

CCCCc1oc2ccccc2c1C(=O)c1ccc(N(CCCN(CCCC)CCCC)S(=O)(=O)c2ccc(OC)cc2)cc1 [Compound 14, 2-n-butyl-3-[N-(3-di-n-butylaminopropyl)-N-(4-methoxy-benzenesulfonyl)-4-amino-benzoyl]-benzofuran]
LD50 at 288 h (acute toxicity in rats; ip, intraperitoneal): 1000 mg/kg | LD0 (rats; intraperitoneal): 200 mg/kg | LD95 (rats; intraperitoneal): 3000 mg/kg

OCCN(CCO)c1nc(N2CCCCC2)c2nc(N(CCO)CCO)nc(N3CCCCC3)c2n1 [dipyridamole]
anti-adrenergic effect (myocardium): do not inhibit the cardio-vascular reactions to adrenergic stimulants | cardiac functioning (myocardium): do not depress the cardiac function | oxygen requirements of the myocardium (myocardium): do not reduce the oxygen requirements of the myocardium | supply of oxygen to the myocardium (myocardium): increase the supply of oxygen to the myocardium

C1CCC(C(CC2CCCCN2)C2CCCCC2)CC1 (stereo not shown) [perhexiline maleate]
anti-adrenergic effect (myocardium): does not possess any anti-adrenergic properties | cardiac frequency (myocardium): diminishing cardiac frequency | cardiac functioning (myocardium): does not appear to exert a depressant effect upon cardiac functioning | oxygen requirements of the myocardium (myocardium): reducing the oxygen requirements of the myocardium | supply of oxygen to the myocardium (myocardium): increasing the supply of oxygen to the myocardium

CC(=O)Nc1ccc(OCC(O)CNC(C)C)cc1 (stereo not shown) [practolol]
anti-adrenergic effect (myocardium): exert an anti-adrenergic effect | cardiac frequency (myocardium): considerably reduce cardiac frequency | cardiac functioning (myocardium): depress cardiac functioning | oxygen requirements of the myocardium (myocardium): diminish the oxygen requirements of the myocardium | supply of oxygen to the myocardium (myocardium): lower the supply of oxygen to the myocardium

CC(Cc1ccccc1)NCCC(c1ccccc1)c1ccccc1 (stereo not shown) [prenylamine]
anti-adrenergic effect (myocardium): do not inhibit the cardio-vascular reactions to adrenergic stimulants | cardiac functioning (myocardium): do not depress the cardiac function | oxygen requirements of the myocardium (myocardium): do not reduce the oxygen requirements of the myocardium | supply of oxygen to the myocardium (myocardium): increase the supply of oxygen to the myocardium
